Measurements as given in patent publication US12257290B2, “PIC1 inhibition of myeloperoxidase oxidative activity in an animal model” (priority 2018, dated 2025).
Ends that are not written are not given here.

Assays:
[1] = test system: complement activation in normal human serum (NHS); test: Heat-aggregated IgG immune complex-initiated complement activation in normal human serum (C5a, iC3b, SC5b-9 ELISA); type: biochemical
Procedure: Immune complex activation of NHS was performed as follows. NHS was stimulated with three different types of immune complexes (IC) to induce complement activation. Heat-aggregated IgG was generated by incubating intravenous immune globulin at 50 mg/ml at 63° C. for 30 min [26]. Ovalbumin-antiovalbumin immune complexes were made by incubating 0.01 ml anti-ovalbumin antibody with an equal volume of ovalbumin, at 0.25 mg/nil, at 37° C. for 30 minutes and then storing at 4° C. overnight. C1 immune complexes were formed by incubating 0.02 ml anti-C1q goat sera with 5 μl of C1, at 200 μg/ml, at 30° C. for 30 minutes and then placing in an ice water bath. For C5a and C5b-9 assays, activation of NHS was performed by pre-incubating 5% NHS with titrating concentrations of PA-dPEG24 in 0.3 ml of GVBS^++ buffer for 30 minutes at room temperature. Then […] of either heat-aggregated IVIg, or ovalbumin IC, or 5 μI of C1-antiC1q IC was added to the mix for 30 min. at 37° C. This reaction was stopped with the addition of an equal volume of GVBS^−−. For iC3b detection, 1% NHS was used and the rest of the protocol remained the same.
ELISA was performed as follows. Samples were assayed using C5a, iC3b, and SC5b-9 ELISAs. […] Colorimetric detection was performed with TMB, stopped with H2SO4 and read on a BioTek Synergy HT plate reader at 450 nm. […]

[2] = target: T1, MPO (Homo sapiens, UniProt P05164); test: MPO-mediated oxidation of TMB (FIG. 16); type: biochemical; conditions: FIG. 16, dose-response, increasing MPO concentrations
T1 sequence (P05164 49-745): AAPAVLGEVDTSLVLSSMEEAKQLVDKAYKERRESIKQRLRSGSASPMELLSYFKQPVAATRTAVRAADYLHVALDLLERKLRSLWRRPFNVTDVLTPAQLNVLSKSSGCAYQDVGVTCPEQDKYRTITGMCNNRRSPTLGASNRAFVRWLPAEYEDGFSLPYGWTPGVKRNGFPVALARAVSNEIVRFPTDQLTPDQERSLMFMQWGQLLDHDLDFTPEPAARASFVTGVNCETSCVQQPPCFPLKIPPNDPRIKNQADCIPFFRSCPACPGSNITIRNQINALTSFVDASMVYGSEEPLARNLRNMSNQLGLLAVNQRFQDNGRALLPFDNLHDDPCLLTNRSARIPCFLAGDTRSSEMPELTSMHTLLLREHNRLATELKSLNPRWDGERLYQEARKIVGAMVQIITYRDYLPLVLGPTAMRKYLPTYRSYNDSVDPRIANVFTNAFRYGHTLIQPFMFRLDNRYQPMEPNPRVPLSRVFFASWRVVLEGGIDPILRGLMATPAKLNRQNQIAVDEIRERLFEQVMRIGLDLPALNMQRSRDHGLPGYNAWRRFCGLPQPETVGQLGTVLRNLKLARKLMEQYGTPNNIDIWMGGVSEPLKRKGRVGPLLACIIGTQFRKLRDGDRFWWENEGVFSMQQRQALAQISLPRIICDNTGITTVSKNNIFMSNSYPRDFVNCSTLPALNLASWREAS
Description: FIG. 16 is a graph showing PIC1 dose-response inhibition of MPO-mediated oxidation of TMB for increasing concentrations of MPO.
PA-dPEG24 can inhibit the peroxidase effect of MPO in clinical CF sputum samples ex vivo as well as for purified MPO in vitro. […] PA-dPEG24 can inhibit NET formation in vitro, such as NET formation stimulated by any of phorbol 12-myristate 13-acetate (PMA), purified MPO, and immune complex-activated human sera.

[3] = test system: classical complement pathway; conditions: administered intravascularly into rats; by 30 seconds; cited from earlier work

IALILEPICCQERAA-dPEG24 (cysteine pairing not given here) [PA-dPEG24, 15-amino acid PEGylated peptide, 24 PEG moieties at the C-terminus]
reduction of C5a generation ([1]; 1 mM PA-dPEG24, vs heat-aggregated IgG with no inhibitor, P=0.002): 61%
PA-dPEG24 concentration giving statistically significant inhibition of effector (C5a, iC3b, SC5b-9) generation ([1]; heat-aggregated IgG in NHS, each assay, P<0.05 vs no inhibitor): ≥ 0.5 mM
MPO-mediated oxidation of TMB [2]: inhibits MPO-mediated oxidation
systemic inhibition of complement activation [3]: > 90%
